Experimental data taken from PMC7336994, “Cytotoxic compounds from the leaves and stems of the endemic Thai plant Mitrephora sirikitiae” (Pharmaceutical Biology, 2020).
Where two headings read alike, the source gives them in different places.

Experiments:
[1] = system: P-388 (murine lymphocytic leukaemia); experiment: SRB cytotoxicity assay, P-388 cells; assay type: cell-based; details: Mus musculus, read-out: IC50 P-388
Description: (§1) The methanol extracts and the isolated compounds were evaluated for their cytotoxic activities against several cell lines, including murine lymphocytic leukaemia (P-388), human oral epidermoid carcinoma (KB), human colon carcinoma (Col-2 and HT-29), human breast cancer (MCF-7), human lung carcinoma (Lu-1 and A549), rat glioma (ASK), and noncancerous human embryonic kidney cell (HEK-293) by sulforhodamine B (SRB) assay in 96-well microtiter plates (Skehan et al. [1990]). This method measures the cellular protein content of cultures in 96-well microtiter plates. The cell lines were seeded into 96-well microtiter plates and treated with the test compounds at concentrations of 0.16–20 µg/mL for 72 h, except for the P-388 cells, which were treated for 48 h. Then the cell cultures were fixed with 20% trichloroacetic acid (Merck) and stained with 0.4% SRB (Sigma-Aldrich) dissolved in 1% acetic acid (Merck) for 1 h. The cellular-protein-bound dye was extracted with 10 mM unbuffered Trisbase solution (pH 10.5) (Sigma-Aldrich) for the determination of optical density at 510 nm with a microtiter plate reader (Thermo Scientific™ Multiskan™ GO Microplate Spectrophotometer). The cytotoxic potency was expressed as median inhibition concentrations (IC50), the concentration that inhibits 50% of cell viability (µg/mL and µM). The IC50 values were determined from the nonlinear regression curve fit in GraphPad Prism software (version 5). Ellipticine (Sigma-Aldrich), a cytotoxic plant alkaloid causing topoisomerase II inhibition and DNA intercalation, was used as a positive control.

[2] = system: KB (human oral epidermoid carcinoma); experiment: SRB cytotoxicity assay, KB cells; assay type: cell-based; details: 72 h, read-out: IC50 KB
Description: as §1

[3] = system: HT-29 (human colon carcinoma); experiment: SRB cytotoxicity assay, HT-29 cells; assay type: cell-based; details: read-out: IC50 HT-29
Description: as §1

[4] = system: MCF-7 (human breast cancer); experiment: SRB cytotoxicity assay, MCF-7 cells; assay type: cell-based; details: read-out: IC50 MCF-7
Description: as §1

[5] = system: A549 (human lung carcinoma); experiment: SRB cytotoxicity assay, A549 cells; assay type: cell-based; details: read-out: IC50 A549
Description: as §1

ASK (rat glioma) = experiment: SRB cytotoxicity assay, ASK cells; assay type: cell-based; details: 72 h, read-out: IC50 ASK
Description: as §1

[6] = system: Hek-293 (noncancerous human embryonic kidney cell); experiment: SRB cytotoxicity assay, Hek-293 cells; assay type: cell-based; details: read-out: IC50 Hek-293
Description: as §1

[7] = system: P-388, KB, HT-29, MCF-7, A549, ASK and Hek-293 cells; experiment: SRB cytotoxicity assay, panel of tested cell lines (summary statements); assay type: cell-based
Description: as §1

[8] = P388, SRB assay, 0.16–20 µg/mL, 48 h
[9] = HT-29, SRB assay, 0.16–20 µg/mL, 72 h
[10] = MCF7, SRB assay, 0.16–20 µg/mL, 72 h
[11] = A549, SRB assay, 0.16–20 µg/mL, 72 h
[12] = Homo sapiens, HEK293, 72 h, SRB assay, non-cancerous cells, 0.16–20 µg/mL, 72 h
[13] = SRB assay, non-cancerous cells, 0.16–20 µg/mL, 72 h
[14] = read-out: IC50 values, range for some of the tested cells
[15] = read-out: IC50 values, range against all tested cell lines

COc1ccc(C2OCC3C(c4ccc(OC)c(OC)c4)OCC23)cc1OC (single isomer, unassigned; (-)) [Compound 1, (–)-epieudesmin]
IC50 [1, 8]: > 20 µM
IC50 ([2]; SRB assay, 0.16–20 µg/mL): > 20 µM
IC50 [3, 9]: > 20 µM
IC50 [4, 10]: > 20 µM
IC50 [5, 11]: > 20 µM
IC50 (ASK (rat glioma); SRB assay, 0.16–20 µg/mL): > 20 µM
IC50 [6, 12]: > 20 µM

COc1cc(C2OCC3C(c4ccc(OC)c(OC)c4)OCC23)ccc1O (single isomer, unassigned; (-)) [Compound 2, (–)-phylligenin]
IC50 [1, 8]: 32.5 ± 2.04 µM
IC50 ([2]; SRB assay, 0.16–20 µg/mL): > 20 µM
IC50 [3, 9]: > 20 µM
IC50 [4, 10]: 36.1 ± 1.02 µM
IC50 [5, 11]: > 20 µM
IC50 (ASK (rat glioma); SRB assay, 0.16–20 µg/mL): > 20 µM
IC50 [6, 12]: > 20 µM

COc1ccc(C(=O)[C@H]2CO[C@H](c3ccc(OC)c(OC)c3)[C@H]2CO)cc1OC [Compound 3, magnone A]
IC50 [1, 8]: 8.96 ± 0.7 µM
IC50 ([2]; SRB assay, 0.16–20 µg/mL): 20.6 ± 3.88 µM
IC50 [3, 9]: 27.6 ± 3.53 µM
IC50 [4, 10]: 4.4 ± 0.1 µM
IC50 [5, 11]: 37.9 ± 5.42 µM
IC50 (ASK (rat glioma); SRB assay, 0.16–20 µg/mL): > 20 µM
IC50 [6, 12]: > 20 µM
IC50 [6, 13]: 23.2 ± 1.17 µM
IC50 [7, 14]: 2.03 to 19.7 µM

CCC(CCC(C)C1CCC2C3CC=C4CC(OC5OC(CO)C(O)C(O)C5O)CCC4(C)C3CCC12C)C(C)C (stereo not drawn) [Compound 4, stigma-5-en-3-O-β-glucopyranoside]
IC50 [1, 8]: > 20 µM
IC50 ([2]; SRB assay, 0.16–20 µg/mL): > 20 µM
IC50 [3, 9]: > 20 µM
IC50 [4, 10]: > 20 µM
IC50 [5, 11]: > 20 µM
IC50 (ASK (rat glioma); SRB assay, 0.16–20 µg/mL): > 20 µM
IC50 [6, 12]: > 20 µM

O=C1c2ccccc2-c2c3c(cc4ccnc1c24)OCO3 [Compound 5, liriodenine]
IC50 ([1]; P388, 48 h): 9.6 ± 0.58 µM
IC50 [2]: 11.02 ± 0.11 µM
IC50 ([3]; HT-29, 72 h): 10.6 ± 0.36 µM
IC50 ([4]; MCF7, 72 h): 9.2 ± 0.25 µM
IC50 ([5]; A549, 72 h): 9.45 ± 0.18 µM
IC50 (ASK (rat glioma)): 10.7 ± 0.95 µM
IC50 ([6]; Homo sapiens, HEK293, 72 h): 8.07 ± 0.11 µM
IC50 [7, 15]: 6.59 to 11 µM

COc1cc(C2OCC(C(=O)c3ccc(OC)c(OC)c3)C2CO)ccc1O (stereo not drawn) [Compound 6, mitrephoran]
IC50 [1, 8]: > 20 µM
IC50 ([2]; SRB assay, 0.16–20 µg/mL): > 20 µM
IC50 [3, 9]: > 20 µM
IC50 [4, 10]: 28.63 ± 0.15 µM
IC50 [5, 11]: > 20 µM
IC50 (ASK (rat glioma); SRB assay, 0.16–20 µg/mL): > 20 µM
IC50 [6, 12]: > 20 µM
melting point: 146 to 148 °C

COc1ccc([C@@H]2Oc3c(OC)cc(CCCO)cc3[C@H]2CO)cc1OC [Compound 7, 3′,4-O-dimethylcedrusin]
IC50 [1, 8]: 25.9 ± 2.99 µM
IC50 ([2]; SRB assay, 0.16–20 µg/mL): 2.03 ± 0.11 µM
IC50 [3, 9]: 19.7 ± 1.52 µM
IC50 [4, 10]: 3.77 ± 0.05 µM
IC50 [5, 11]: 10.3 ± 2.49 µM
IC50 (ASK (rat glioma); SRB assay, 0.16–20 µg/mL): > 20 µM
IC50 [6, 12]: 8.48 ± 4.04 µM
IC50 [7, 14]: 2.03 to 19.7 µM

COc1cc(OC)cc(C2OCC3C(c4ccc(OC)c(OC)c4)OCC23)c1 (stereo not drawn) [Compound 8, 2-(3,4-dimethoxyphenyl)-6-(3,5-dimethoxyphenyl)-3,7-dioxabicyclo[3.3.0]octane]
IC50 [1, 8]: > 20 µM
IC50 ([2]; SRB assay, 0.16–20 µg/mL): 15.9 ± 0.36 µM
IC50 [3, 9]: > 20 µM
IC50 [4, 10]: 21.9 ± 2.96 µM
IC50 [5, 11]: > 20 µM
IC50 (ASK (rat glioma); SRB assay, 0.16–20 µg/mL): > 20 µM
IC50 [6, 12]: 16.5 ± 0.94 µM

COc1cc(/C=C/C(=O)NCCc2ccc(O)cc2)ccc1O [Compound 9, N-trans-feruloyltyramine]
IC50 [1, 8]: > 20 µM
IC50 ([2]; SRB assay, 0.16–20 µg/mL): > 20 µM
IC50 [3, 9]: > 20 µM
IC50 [4, 10]: > 20 µM
IC50 [5, 11]: > 20 µM
IC50 (ASK (rat glioma); SRB assay, 0.16–20 µg/mL): > 20 µM
IC50 [6, 12]: > 20 µM

COc1cc2c(cc1OC)-c1c3c(cc4ccnc(c14)C2=O)OCO3 [Compound 10, dicentrinone]
IC50 ([1]; P388, 48 h): > 20 µM
IC50 [2]: > 20 µM
IC50 ([3]; HT-29, 72 h): > 20 µM
IC50 ([4]; MCF7, 72 h): 36.9 ± 1.13 µM
IC50 ([5]; A549, 72 h): > 20 µM
IC50 (ASK (rat glioma)): > 20 µM
IC50 ([6]; Homo sapiens, HEK293, 72 h): > 20 µM

COc1cccc2c1-c1c3c(cc4ccnc(c14)C2=O)OCO3 [Compound 11, oxoputerine]
IC50 [1, 8]: 6.72 ± 0.36 µM
IC50 ([2]; SRB assay, 0.16–20 µg/mL): 7.67 ± 0.3 µM
IC50 [3, 9]: 7.28 ± 0.23 µM
IC50 [4, 10]: 7.05 ± 0.2 µM
IC50 [5, 11]: 7.21 ± 0.79 µM
IC50 (ASK (rat glioma); SRB assay, 0.16–20 µg/mL): 6.59 ± 0.43 µM
IC50 [6, 12]: 7.31 ± 0.07 µM
IC50 [7, 15]: 6.59 to 11 µM

CC1(C(=O)O)CCCC2(C)C1CC(O)C13CC4C(CC21)C4(C)C3 (stereo not drawn) [Compound 14, ciliaric acid]
IC50 [1, 8]: > 20 µM
IC50 ([2]; SRB assay, 0.16–20 µg/mL): > 20 µM
IC50 [3, 9]: > 20 µM
IC50 [4, 10]: > 20 µM
IC50 [5, 11]: > 20 µM
IC50 (ASK (rat glioma); SRB assay, 0.16–20 µg/mL): > 20 µM
IC50 [6, 12]: > 20 µM

COc1cccc2c1C(=O)c1c(C)cc(=O)[nH]c1C2=O [Compound 15, 6-methoxymarcanine A]
IC50 [1, 8]: 9.55 ± 2.83 µM
IC50 ([2]; SRB assay, 0.16–20 µg/mL): 38.1 ± 0.52 µM
IC50 [3, 9]: 10.15 ± 0.07 µM
IC50 [4, 10]: 8.33 ± 0.63 µM
IC50 [5, 11]: 12.3 ± 0.37 µM
IC50 (ASK (rat glioma); SRB assay, 0.16–20 µg/mL): 38.7 ± 1.12 µM
IC50 [6, 12]: > 20 µM
IC50 [6, 13]: > 20 µM
IC50 ([7]; P-338, HT-29, MCF-7 and A549, read-out: IC50 values, range over four tested cell lines): 8.33 to 12.3 µM
IC50 [7, 14]: 2.03 to 19.7 µM

COc1cc2c(cc1O)-c1cc3ccc(O)c(OC)c3c[n+]1CC2 [Compound 16, stepharanine]
IC50 ([1]; P388, 48 h): > 20 µM
IC50 [2]: > 20 µM
IC50 ([3]; HT-29, 72 h): > 20 µM
IC50 ([4]; MCF7, 72 h): > 20 µM
IC50 ([5]; A549, 72 h): > 20 µM
IC50 (ASK (rat glioma)): > 20 µM
IC50 ([6]; Homo sapiens, HEK293, 72 h): > 20 µM

Cc1c2ccncc2c(C)c2c1[nH]c1ccccc12 [Ellipticine, reference compound]
IC50 [1, 8]: 2.03 ± 0.08 µM
IC50 ([2]; SRB assay, 0.16–20 µg/mL): 2.36 ± 0.04 µM
IC50 [3, 9]: 2.4 ± 0.04 µM
IC50 [4, 10]: 2.15 ± 0.08 µM
IC50 [5, 11]: 2.64 ± 0.24 µM
IC50 (ASK (rat glioma); SRB assay, 0.16–20 µg/mL): 2.56 ± 0.04 µM
IC50 [6, 12]: 2.68 ± 0.08 µM
